Literature values as cited in patent publication US20030073069A1, “Drug rescue by redesign of ADMET/PK properties” (priority 2001, published 2003).
Read-outs that look alike come from different tables or passages of the source.

How the values were obtained:
[1] = FIG. 8
[2] = tested on: P450
[3] = tested on: P450; details: induction of a P450
[4] = development for memory enhancement abandoned
[5] = molecular target: CYP 3A4 (Homo sapiens, UniProt P08684); details: indicates a reactive intermediate formed by CYP 3A4 metabolism
CYP 3A4, sequence (P08684 whole entry): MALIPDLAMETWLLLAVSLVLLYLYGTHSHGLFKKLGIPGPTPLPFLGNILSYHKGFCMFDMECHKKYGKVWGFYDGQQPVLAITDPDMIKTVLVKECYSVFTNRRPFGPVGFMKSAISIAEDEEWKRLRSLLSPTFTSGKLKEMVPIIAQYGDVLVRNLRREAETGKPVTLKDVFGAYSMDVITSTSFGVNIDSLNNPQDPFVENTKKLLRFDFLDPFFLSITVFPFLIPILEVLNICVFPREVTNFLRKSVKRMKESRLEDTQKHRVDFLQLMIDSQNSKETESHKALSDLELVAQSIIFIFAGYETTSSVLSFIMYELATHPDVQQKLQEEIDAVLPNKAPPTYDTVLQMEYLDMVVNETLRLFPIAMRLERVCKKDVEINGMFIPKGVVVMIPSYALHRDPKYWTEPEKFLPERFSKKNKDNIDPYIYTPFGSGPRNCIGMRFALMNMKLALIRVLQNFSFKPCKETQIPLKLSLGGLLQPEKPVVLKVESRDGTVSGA

## CN(C)Cc1nnc2n1-c1ccc(Cl)cc1C(c1ccccc1)=NC2 [adinazolam]
[1]
  bioavailability, experimentally observed: low
  half lives, experimentally observed: short

## Cc1nnc2n1-c1ccc(Cl)cc1C(c1ccccc1)=NC2 [alprazolam]
[2]
  No. of currently known drug interactions that involve the compound, Inhibition: 15
[3]
  No. of currently known drug interactions that involve the compound, Induction: 3

## CN(C)CCC=C1c2ccccc2CCc2ccccc21 [amitriptyline]
[2]; inhibition of a P450
  No. of currently known drug interactions that involve the compound, Inhibition: 5
[3]
  No. of currently known drug interactions that involve the compound, Induction: 11

## NC(=O)N1c2ccccc2C=Cc2ccccc21 [carbamazepine]
[2]; inhibition of a P450
  No. of currently known drug interactions that involve the compound, Inhibition: 3
[3]
  No. of currently known drug interactions that involve the compound, Induction: 9

## CNC1=Nc2ccc(Cl)cc2C(c2ccccc2)=[N+]([O-])C1 [chlordiazepoxide]
[2]
  No. of currently known drug interactions that involve the compound, Inhibition: 7
[3]
  No. of currently known drug interactions that involve the compound, Induction: 3

## CC[C@H]1OC(=O)[C@H](C)[C@@H](O[C@H]2C[C@@](C)(OC)[C@@H](O)[C@H](C)O2)[C@H](C)[C@@H](O[C@@H]2O[C@H](C)C[C@H](N(C)C)[C@H]2O)[C@](C)(OC)C[C@@H](C)C(=O)[C@H](C)[C@@H](O)[C@]1(C)O [clarithromycin]
[2]; inhibition of a P450
  No. of currently known drug interactions that involve the compound, Inhibition: 1
[3]
  No. of currently known drug interactions that involve the compound, Induction: 1

## CN(C)CCCN1c2ccccc2CCc2ccc(Cl)cc21 [clomipramine]
[2]; inhibition of a P450
  No. of currently known drug interactions that involve the compound, Inhibition: 5
[3]
  No. of currently known drug interactions that involve the compound, Induction: 11

## O=C1CN=C(c2ccccc2Cl)c2cc([N+](=O)[O-])ccc2N1 [clonazepam]
[2]
  No. of currently known drug interactions that involve the compound, Inhibition: 10
[3]
  No. of currently known drug interactions that involve the compound, Induction: 3

## O=C(O)C1N=C(c2ccccc2)c2cc(Cl)ccc2NC1=O (stereo not drawn) [clorazepate]
[2]
  No. of currently known drug interactions that involve the compound, Inhibition: 7
[3]
  No. of currently known drug interactions that involve the compound, Induction: 3

## CN1CCN(C2=Nc3cc(Cl)ccc3Nc3ccccc32)CC1 [clozapine]
[2]; inhibition of a P450
  No. of currently known drug interactions that involve the compound, Inhibition: 2
[3]
  No. of currently known drug interactions that involve the compound, Induction: 1

## CNCCCN1c2ccccc2CCc2ccccc21 [desipramine]
[2]; inhibition of a P450
  No. of currently known drug interactions that involve the compound, Inhibition: 4
[3]
  No. of currently known drug interactions that involve the compound, Induction: 1

## CN(C)CCC=C1c2ccccc2COc2ccccc21 [doxepin]
[2]; inhibition of a P450
  No. of currently known drug interactions that involve the compound, Inhibition: 4
[3]
  No. of currently known drug interactions that involve the compound, Induction: 11

## Clc1ccc2c(c1)C(c1ccccc1)=NCc1nncn1-2 [estazolam]
[2]
  No. of currently known drug interactions that involve the compound, Inhibition: 7
[3]
  No. of currently known drug interactions that involve the compound, Induction: 3

## CCOC(=O)C1=C(C)NC(C)=C(C(=O)OC)C1c1cccc(Cl)c1Cl (stereo not drawn) [felodipine]
[2]; inhibition of a P450
  No. of currently known drug interactions that involve the compound, Inhibition: 1
[3]
  No. of currently known drug interactions that involve the compound, Induction: 4

## CCN(CC)CCN1C(=O)CN=C(c2ccccc2F)c2cc(Cl)ccc21 [flurazepam]
[2]
  No. of currently known drug interactions that involve the compound, Inhibition: 7
[3]
  No. of currently known drug interactions that involve the compound, Induction: 3

## O=C1CN=C(c2ccccc2)c2cc(Cl)ccc2N1CC(F)(F)F [halazepam]
[2]
  No. of currently known drug interactions that involve the compound, Inhibition: 7
[3]
  No. of currently known drug interactions that involve the compound, Induction: 3

## C[C@]12CCC(=O)C=C1CC[C@@H]1[C@@H]2[C@@H](O)C[C@@]2(C)[C@H]1CC[C@]2(O)C(=O)CO [hydrocortisone]
[2]; inhibition of a P450
  No. of currently known drug interactions that involve the compound, Inhibition: 1
[3]
  No. of currently known drug interactions that involve the compound, Induction: 14

## CN(C)CCCN1c2ccccc2CCc2ccccc21 [imipramine]
[2]; inhibition of a P450
  No. of currently known drug interactions that involve the compound, Inhibition: 5
[3]
  No. of currently known drug interactions that involve the compound, Induction: 11

## CCC1(c2ccccc2)NC(=O)N(C)C1=O (stereo not drawn) [mephenytoin]
[2]; inhibition of a P450
  No. of currently known drug interactions that involve the compound, Inhibition: 4
[3]
  No. of currently known drug interactions that involve the compound, Induction: 2

## C[C@H]1C[C@@H]2[C@H]([C@@H](O)C[C@@]3(C)[C@H]2CC[C@]3(O)C(=O)CO)[C@@]2(C)C=CC(=O)C=C12 [methylprednisolone]
[2]; inhibition of a P450
  No. of currently known drug interactions that involve the compound, Inhibition: 1
[3]
  No. of currently known drug interactions that involve the compound, Induction: 14

## Cc1ncc2n1-c1ccc(Cl)cc1C(c1ccccc1F)=NC2 [midazolam]
[1]
  bioavailability, experimentally observed: low
  half lives, experimentally observed: short
[2]
  No. of currently known drug interactions that involve the compound, Inhibition: 15
[3]
  No. of currently known drug interactions that involve the compound, Induction: 3

## COC(=O)C1=C(C)NC(C)=C(C(=O)OCC(C)C)C1c1ccccc1[N+](=O)[O-] (stereo not drawn) [nisoldipine]
[2]; inhibition of a P450
  No. of currently known drug interactions that involve the compound, Inhibition: 3
[3]
  No. of currently known drug interactions that involve the compound, Induction: 4

## CNCCC=C1c2ccccc2CCc2ccccc21 [nortriptyline]
[2]; inhibition of a P450
  No. of currently known drug interactions that involve the compound, Inhibition: 4
[3]
  No. of currently known drug interactions that involve the compound, Induction: 11

## O=C1NC(=O)C(c2ccccc2)(c2ccccc2)N1 [phenytoin]
[2]; inhibition of a P450
  No. of currently known drug interactions that involve the compound, Inhibition: 4
[3]
  No. of currently known drug interactions that involve the compound, Induction: 1

## C[C@]12C=CC(=O)C=C1CC[C@@H]1[C@@H]2[C@@H](O)C[C@@]2(C)[C@H]1CC[C@]2(O)C(=O)CO [prednisolone]
[2]; inhibition of a P450
  No. of currently known drug interactions that involve the compound, Inhibition: 1
[3]
  No. of currently known drug interactions that involve the compound, Induction: 10

## Fc1ccccc1C1=NCC(=S)N(CC(F)(F)F)c2ccc(Cl)cc21 [quazepam]
[2]
  No. of currently known drug interactions that involve the compound, Inhibition: 7
[3]
  No. of currently known drug interactions that involve the compound, Induction: 3

## C=C[C@H]1C[N@@]2CC[C@H]1C[C@@H]2[C@@H](O)c1ccnc2ccc(OC)cc12 [quinidine]
[2]; inhibition of a P450
  No. of currently known drug interactions that involve the compound, Inhibition: 4
[3]
  No. of currently known drug interactions that involve the compound, Induction: 13

## C=CC[C@@H]1/C=C(\C)C[C@H](C)C[C@H](OC)[C@H]2O[C@@](O)(C(=O)C(=O)N3CCCC[C@H]3C(=O)O[C@H](/C(C)=C/[C@@H]3CC[C@@H](O)[C@H](OC)C3)[C@H](C)[C@@H](O)CC1=O)[C@H](C)C[C@@H]2OC [tacrolimus]
[2]; inhibition of a P450
  No. of currently known drug interactions that involve the compound, Inhibition: 4
[3]
  No. of currently known drug interactions that involve the compound, Induction: 3

## CCCCCNC(=N)N/N=C/c1c[nH]c2ccc(OC)cc12 [tegaserod]
[4]
  ability to breach the Blood-Brain-Barrier, as found: not to breach the Blood-Brain-Barrier

## C[C@]12C=CC(=O)C=C1CC[C@H]1[C@@H]3C[C@@H](O)[C@](O)(C(=O)CO)[C@@]3(C)C[C@H](O)[C@@]12F [triamcinolone]
[3]
  No. of currently known drug interactions that involve the compound, Induction: 10

## Cc1nnc2n1-c1ccc(Cl)cc1C(c1ccccc1Cl)=NC2 [triazolam]
[2]
  No. of currently known drug interactions that involve the compound, Inhibition: 15
[3]
  No. of currently known drug interactions that involve the compound, Induction: 3

## CC(CN(C)C)CN1c2ccccc2CCc2ccccc21 (stereo not drawn) [trimipramine]
[2]; inhibition of a P450
  No. of currently known drug interactions that involve the compound, Inhibition: 4
[3]
  No. of currently known drug interactions that involve the compound, Induction: 9

## Cc1c(C)c2c(c(C)c1O)CCC(C)(COc1ccc(CC3SC(=O)NC3=O)cc1)O2 (stereo not drawn) [troglitazone]
[5]
  inhibition of CYP 3A4: time and NADPH-dependent inhibition

## CC(=O)CC(c1ccccc1)c1c(O)c2ccccc2oc1=O (stereo not drawn) [warfarin]
[2]; inhibition of a P450
  No. of currently known drug interactions that involve the compound, Inhibition: 12
[3]
  No. of currently known drug interactions that involve the compound, Induction: 2

## Cc1ccc(-c2nc3ccc(C)cn3c2CC(=O)N(C)C)cc1 [zolpidem]
[2]
  No. of currently known drug interactions that involve the compound, Inhibition: 2
[3]
  No. of currently known drug interactions that involve the compound, Induction: 2
